Reference: the kinase profiling compilation of Christmann-Franck et al. (2016)

Tests used:
Test in all cases: KINOMEscan competition binding
Details in all cases: compound 10.0 µM
[1] = system: ABL1 (human), P00519 [F317L]
[2] = system: ABL1 (human), P00519 [Q252H]
ACVRL1 (human) = ACVRL1 (human) (UniProt P37023)
AKT2 (human) = AKT2 (human) (UniProt P31751)
ALK (human) = ALK (human) (UniProt Q9UM73)
ANKK1 (human) = ANKK1 (human) (UniProt Q8NFD2)
CDC42BPG (human) = CDC42BPG (human) (UniProt Q6DT37)
CDK11B (human) = CDK11B (human) (UniProt P21127)
CHEK1 (human) = CHEK1 (human) (UniProt O14757)
CLK1 (human) = CLK1 (human) (UniProt P49759)
DAPK3 (human) = DAPK3 (human) (UniProt O43293)
Chain of DAPK3 (human) (O43293 whole entry, looked up): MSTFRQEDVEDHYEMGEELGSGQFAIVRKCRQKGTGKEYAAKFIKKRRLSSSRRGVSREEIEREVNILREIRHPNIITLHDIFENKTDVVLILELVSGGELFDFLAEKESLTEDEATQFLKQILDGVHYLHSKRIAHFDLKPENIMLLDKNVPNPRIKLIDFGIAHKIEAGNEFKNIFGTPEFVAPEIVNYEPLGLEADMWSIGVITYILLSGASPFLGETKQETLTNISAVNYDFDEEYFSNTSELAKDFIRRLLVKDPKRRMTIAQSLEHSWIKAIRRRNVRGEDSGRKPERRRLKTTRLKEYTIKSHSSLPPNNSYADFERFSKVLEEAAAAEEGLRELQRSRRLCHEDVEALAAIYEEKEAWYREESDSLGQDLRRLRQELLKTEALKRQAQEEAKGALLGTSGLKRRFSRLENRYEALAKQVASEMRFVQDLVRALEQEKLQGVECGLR

DDR2 (human) = DDR2 (human) (UniProt Q16832)
Chain of DDR2 (human) (Q16832 whole entry, looked up): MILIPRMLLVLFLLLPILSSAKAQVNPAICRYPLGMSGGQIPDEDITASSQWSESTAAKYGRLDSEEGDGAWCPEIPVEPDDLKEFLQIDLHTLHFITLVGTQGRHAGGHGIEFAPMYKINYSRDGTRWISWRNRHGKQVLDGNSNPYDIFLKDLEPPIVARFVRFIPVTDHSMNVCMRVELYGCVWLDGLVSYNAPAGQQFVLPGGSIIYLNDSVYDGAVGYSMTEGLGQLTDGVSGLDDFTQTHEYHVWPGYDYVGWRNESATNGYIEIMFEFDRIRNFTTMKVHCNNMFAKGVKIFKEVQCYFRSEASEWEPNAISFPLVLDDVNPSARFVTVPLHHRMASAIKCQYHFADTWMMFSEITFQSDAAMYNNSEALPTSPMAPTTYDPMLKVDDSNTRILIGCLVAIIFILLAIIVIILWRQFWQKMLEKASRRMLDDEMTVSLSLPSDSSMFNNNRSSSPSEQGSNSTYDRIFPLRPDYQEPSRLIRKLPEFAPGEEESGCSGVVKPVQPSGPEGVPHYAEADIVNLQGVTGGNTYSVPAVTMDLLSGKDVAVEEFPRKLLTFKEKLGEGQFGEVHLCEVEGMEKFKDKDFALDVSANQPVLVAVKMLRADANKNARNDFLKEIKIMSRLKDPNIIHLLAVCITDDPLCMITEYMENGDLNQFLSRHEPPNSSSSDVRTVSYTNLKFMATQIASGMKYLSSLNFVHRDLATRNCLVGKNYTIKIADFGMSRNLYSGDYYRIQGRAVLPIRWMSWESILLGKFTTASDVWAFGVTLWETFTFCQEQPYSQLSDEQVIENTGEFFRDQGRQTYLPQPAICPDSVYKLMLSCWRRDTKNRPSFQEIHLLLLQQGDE

EIF2AK2 (human) = EIF2AK2 (human) (UniProt P19525)
EPHA4 (human) = EPHA4 (human) (UniProt P54764)
Chain of EPHA4 (human) (P54764 whole entry, looked up): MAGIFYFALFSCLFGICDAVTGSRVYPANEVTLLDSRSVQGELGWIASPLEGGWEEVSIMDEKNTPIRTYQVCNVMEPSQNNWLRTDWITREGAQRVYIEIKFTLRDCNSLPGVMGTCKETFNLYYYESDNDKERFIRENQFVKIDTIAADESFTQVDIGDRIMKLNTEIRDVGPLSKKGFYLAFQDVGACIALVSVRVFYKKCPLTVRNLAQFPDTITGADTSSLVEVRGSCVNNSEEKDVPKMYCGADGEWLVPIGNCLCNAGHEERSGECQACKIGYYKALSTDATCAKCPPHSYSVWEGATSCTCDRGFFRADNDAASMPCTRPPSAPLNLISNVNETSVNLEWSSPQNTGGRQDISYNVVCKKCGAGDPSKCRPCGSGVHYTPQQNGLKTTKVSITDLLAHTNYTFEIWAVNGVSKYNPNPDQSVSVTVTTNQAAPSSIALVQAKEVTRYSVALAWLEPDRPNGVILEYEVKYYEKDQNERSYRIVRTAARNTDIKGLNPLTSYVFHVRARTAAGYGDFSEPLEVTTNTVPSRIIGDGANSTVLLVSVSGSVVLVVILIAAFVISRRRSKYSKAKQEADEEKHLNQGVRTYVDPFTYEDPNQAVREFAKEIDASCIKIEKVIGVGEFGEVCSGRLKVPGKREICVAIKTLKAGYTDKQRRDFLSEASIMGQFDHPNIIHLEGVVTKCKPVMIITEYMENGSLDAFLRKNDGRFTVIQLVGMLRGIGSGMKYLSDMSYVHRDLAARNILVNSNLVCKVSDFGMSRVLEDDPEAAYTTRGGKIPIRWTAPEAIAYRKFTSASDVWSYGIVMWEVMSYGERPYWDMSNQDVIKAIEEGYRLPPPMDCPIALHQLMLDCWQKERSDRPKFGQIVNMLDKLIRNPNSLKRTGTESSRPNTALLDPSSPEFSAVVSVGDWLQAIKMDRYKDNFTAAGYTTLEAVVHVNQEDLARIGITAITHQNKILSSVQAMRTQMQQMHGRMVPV

ERBB4 (human) = ERBB4 (human) (UniProt Q15303)
FGFR2 (human) = FGFR2 (human) (UniProt P21802)
FGFR3 (human) = FGFR3 (human) (UniProt P22607)
FYN (human) = FYN (human) (UniProt P06241)
HIPK1 (human) = HIPK1 (human) (UniProt Q86Z02)
MAP4K1 (human) = MAP4K1 (human) (UniProt Q92918)
Chain of MAP4K1 (human) (Q92918 whole entry, looked up): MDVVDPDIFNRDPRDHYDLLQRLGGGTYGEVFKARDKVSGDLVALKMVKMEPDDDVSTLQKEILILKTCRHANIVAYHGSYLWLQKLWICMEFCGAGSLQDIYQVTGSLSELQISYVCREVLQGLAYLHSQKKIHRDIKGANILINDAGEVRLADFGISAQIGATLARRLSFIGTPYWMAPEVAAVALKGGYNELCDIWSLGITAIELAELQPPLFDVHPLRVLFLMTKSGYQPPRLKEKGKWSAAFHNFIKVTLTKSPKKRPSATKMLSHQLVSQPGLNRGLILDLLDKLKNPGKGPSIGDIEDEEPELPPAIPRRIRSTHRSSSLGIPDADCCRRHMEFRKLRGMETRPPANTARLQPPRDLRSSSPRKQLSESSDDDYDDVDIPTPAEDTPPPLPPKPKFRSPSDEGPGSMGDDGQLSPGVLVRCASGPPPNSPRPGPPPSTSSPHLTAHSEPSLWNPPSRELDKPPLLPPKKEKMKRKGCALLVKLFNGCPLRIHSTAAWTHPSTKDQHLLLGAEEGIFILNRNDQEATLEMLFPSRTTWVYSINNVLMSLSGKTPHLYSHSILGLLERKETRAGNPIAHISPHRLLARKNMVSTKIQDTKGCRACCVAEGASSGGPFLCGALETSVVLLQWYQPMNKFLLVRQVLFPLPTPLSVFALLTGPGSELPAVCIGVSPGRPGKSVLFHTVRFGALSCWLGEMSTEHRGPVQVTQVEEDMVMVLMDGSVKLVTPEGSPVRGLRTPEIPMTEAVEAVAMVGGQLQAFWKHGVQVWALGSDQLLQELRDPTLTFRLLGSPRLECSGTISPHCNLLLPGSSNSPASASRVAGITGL

MAPK11 (human) = MAPK11 (human) (UniProt Q15759)
MAPK15 (human) = MAPK15 (human) (UniProt Q8TD08)
Chain of MAPK15 (human) (Q8TD08 whole entry, looked up): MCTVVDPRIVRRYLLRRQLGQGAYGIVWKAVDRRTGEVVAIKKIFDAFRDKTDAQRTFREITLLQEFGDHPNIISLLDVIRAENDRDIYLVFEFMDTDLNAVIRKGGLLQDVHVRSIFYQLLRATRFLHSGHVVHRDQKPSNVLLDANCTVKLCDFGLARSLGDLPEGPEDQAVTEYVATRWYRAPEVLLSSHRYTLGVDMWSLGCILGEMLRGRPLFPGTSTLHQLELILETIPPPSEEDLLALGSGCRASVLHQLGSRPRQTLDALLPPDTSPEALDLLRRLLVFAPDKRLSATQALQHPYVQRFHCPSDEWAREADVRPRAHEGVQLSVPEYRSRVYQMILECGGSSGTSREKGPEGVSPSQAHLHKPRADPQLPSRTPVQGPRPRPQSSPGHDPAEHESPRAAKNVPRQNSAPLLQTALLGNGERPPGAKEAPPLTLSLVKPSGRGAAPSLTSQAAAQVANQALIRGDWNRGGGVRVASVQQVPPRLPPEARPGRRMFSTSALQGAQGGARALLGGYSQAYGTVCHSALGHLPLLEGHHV

MATK (human) = MATK (human) (UniProt P42679)
MUSK (human) = MUSK (human) (UniProt O15146)
NEK2 (human) = NEK2 (human) (UniProt P51955)
NEK5 (human) = NEK5 (human) (UniProt Q6P3R8)
PAK6 (human) = PAK6 (human) (UniProt Q9NQU5)
PDPK1 (human) = PDPK1 (human) (UniProt O15530)
Chain of PDPK1 (human) (O15530 whole entry, looked up): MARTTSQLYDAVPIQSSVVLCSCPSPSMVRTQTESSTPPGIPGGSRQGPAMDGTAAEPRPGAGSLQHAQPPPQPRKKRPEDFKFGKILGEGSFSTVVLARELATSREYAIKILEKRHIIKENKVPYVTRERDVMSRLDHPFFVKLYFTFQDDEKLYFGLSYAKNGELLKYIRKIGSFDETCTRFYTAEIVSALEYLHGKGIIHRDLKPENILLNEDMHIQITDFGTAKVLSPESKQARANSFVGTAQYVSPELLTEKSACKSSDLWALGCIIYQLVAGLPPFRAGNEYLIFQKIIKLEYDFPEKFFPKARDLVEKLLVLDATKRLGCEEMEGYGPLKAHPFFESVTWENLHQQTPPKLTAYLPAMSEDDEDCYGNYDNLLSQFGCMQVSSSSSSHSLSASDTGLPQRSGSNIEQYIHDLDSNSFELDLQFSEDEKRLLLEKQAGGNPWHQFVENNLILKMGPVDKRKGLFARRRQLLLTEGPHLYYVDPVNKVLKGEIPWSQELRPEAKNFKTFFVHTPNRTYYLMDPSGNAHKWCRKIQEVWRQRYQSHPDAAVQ

PIM1 (human) = PIM1 (human) (UniProt P11309)
PKN1 (human) = PKN1 (human) (UniProt Q16512)
[3] = system: RET (human), P07949 [V804L]
RIOK2 (human) = RIOK2 (human) (UniProt Q9BVS4)
RPS6KA4 KD1 (human) = RPS6KA4 KD1 (human) (UniProt O75676)
RPS6KA4 KD2 (human) = RPS6KA4 KD2 (human) (UniProt O75676)
SGK110 (human) = SGK110 (human) (UniProt P0C264)
SIK3 (human) = SIK3 (human) (UniProt Q9Y2K2)
STK39 (human) = STK39 (human) (UniProt Q9UEW8)
TGFBR2 (human) = TGFBR2 (human) (UniProt P37173)
Chain of TGFBR2 (human) (P37173 whole entry, looked up): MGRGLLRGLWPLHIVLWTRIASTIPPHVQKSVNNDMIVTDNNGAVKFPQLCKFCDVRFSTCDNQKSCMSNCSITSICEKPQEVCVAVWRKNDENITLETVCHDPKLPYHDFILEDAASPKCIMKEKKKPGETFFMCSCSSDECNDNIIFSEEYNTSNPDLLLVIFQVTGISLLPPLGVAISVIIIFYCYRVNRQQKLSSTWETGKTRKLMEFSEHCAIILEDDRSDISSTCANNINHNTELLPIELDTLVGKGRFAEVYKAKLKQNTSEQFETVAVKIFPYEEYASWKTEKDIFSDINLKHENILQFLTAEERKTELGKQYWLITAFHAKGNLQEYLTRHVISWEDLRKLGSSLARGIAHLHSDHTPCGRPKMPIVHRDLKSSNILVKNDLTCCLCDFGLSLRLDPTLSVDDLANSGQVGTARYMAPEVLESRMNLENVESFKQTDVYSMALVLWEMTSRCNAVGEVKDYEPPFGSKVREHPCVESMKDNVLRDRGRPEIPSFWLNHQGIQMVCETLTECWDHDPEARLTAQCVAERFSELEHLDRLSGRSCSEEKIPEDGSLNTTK

TNIK (human) = TNIK (human) (UniProt Q9UKE5)
ZAP70 (human) = ZAP70 (human) (UniProt P43403)
CAMK4 (human) = CAMK4 (human) (UniProt Q16566)
CLK3 (human) = CLK3 (human) (UniProt P49761)

COc1ccc(CNC(=O)Nc2ncc([N+](=O)[O-])s2)cc1
kinase still bound, per cent of control [1]: 100%
kinase still bound, per cent of control [2]: 100%
kinase still bound, per cent of control (ACVRL1 (human)): 97%
kinase still bound, per cent of control (AKT2 (human)): 99%
kinase still bound, per cent of control (ALK (human)): 100%
kinase still bound, per cent of control (ANKK1 (human)): 100%
kinase still bound, per cent of control (CDC42BPG (human)): 100%
kinase still bound, per cent of control (CDK11B (human)): 100%
kinase still bound, per cent of control (CHEK1 (human)): 100%
kinase still bound, per cent of control (CLK1 (human)): 62%
kinase still bound, per cent of control (DAPK3 (human)): 81%
kinase still bound, per cent of control (DDR2 (human)): 71%
kinase still bound, per cent of control (EIF2AK2 (human)): 76%
kinase still bound, per cent of control (EPHA4 (human)): 100%
kinase still bound, per cent of control (ERBB4 (human)): 100%
kinase still bound, per cent of control (FGFR2 (human)): 81%
kinase still bound, per cent of control (FGFR3 (human)): 100%
kinase still bound, per cent of control (FYN (human)): 87%
kinase still bound, per cent of control (HIPK1 (human)): 58%
kinase still bound, per cent of control (MAP4K1 (human)): 98%
kinase still bound, per cent of control (MAPK11 (human)): 100%
kinase still bound, per cent of control (MAPK15 (human)): 51%
kinase still bound, per cent of control (MATK (human)): 95%
kinase still bound, per cent of control (MUSK (human)): 100%
kinase still bound, per cent of control (NEK2 (human)): 90%
kinase still bound, per cent of control (NEK5 (human)): 100%
kinase still bound, per cent of control (PAK6 (human)): 100%
kinase still bound, per cent of control (PDPK1 (human)): 78%
kinase still bound, per cent of control (PIM1 (human)): 75%
kinase still bound, per cent of control (PKN1 (human)): 100%
kinase still bound, per cent of control [3]: 100%
kinase still bound, per cent of control (RIOK2 (human)): 23%
kinase still bound, per cent of control (RPS6KA4 KD1 (human)): 98%
kinase still bound, per cent of control (RPS6KA4 KD2 (human)): 85%
kinase still bound, per cent of control (SGK110 (human)): 83%
kinase still bound, per cent of control (SIK3 (human)): 77%
kinase still bound, per cent of control (STK39 (human)): 100%
kinase still bound, per cent of control (TGFBR2 (human)): 70%
kinase still bound, per cent of control (TNIK (human)): 100%
kinase still bound, per cent of control (ZAP70 (human)): 100%

Cc1cnc(-c2cnc(NCCNc3ccc(C#N)cn3)nc2-c2ccc(Cl)cc2Cl)[nH]1
kinase still bound, per cent of control [1]: 100%
kinase still bound, per cent of control [2]: 100%
kinase still bound, per cent of control (ACVRL1 (human)): 100%
kinase still bound, per cent of control (AKT2 (human)): 100%
kinase still bound, per cent of control (ALK (human)): 100%
kinase still bound, per cent of control (ANKK1 (human)): 100%
kinase still bound, per cent of control (CAMK4 (human)): 100%
kinase still bound, per cent of control (CDC42BPG (human)): 100%
kinase still bound, per cent of control (CDK11B (human)): 100%
kinase still bound, per cent of control (CHEK1 (human)): 100%
kinase still bound, per cent of control (CLK1 (human)): 49%
kinase still bound, per cent of control (CLK3 (human)): 97%
kinase still bound, per cent of control (DAPK3 (human)): 83%
kinase still bound, per cent of control (DDR2 (human)): 100%
kinase still bound, per cent of control (EIF2AK2 (human)): 50%
kinase still bound, per cent of control (EPHA4 (human)): 100%
kinase still bound, per cent of control (ERBB4 (human)): 100%
kinase still bound, per cent of control (FGFR2 (human)): 98%
kinase still bound, per cent of control (FGFR3 (human)): 100%
kinase still bound, per cent of control (FYN (human)): 100%
kinase still bound, per cent of control (HIPK1 (human)): 87%
kinase still bound, per cent of control (MAP4K1 (human)): 100%
kinase still bound, per cent of control (MAPK11 (human)): 100%
kinase still bound, per cent of control (MAPK15 (human)): 68%
kinase still bound, per cent of control (MATK (human)): 79%
kinase still bound, per cent of control (MUSK (human)): 100%
kinase still bound, per cent of control (NEK2 (human)): 72%
kinase still bound, per cent of control (NEK5 (human)): 93%
kinase still bound, per cent of control (PAK6 (human)): 100%
kinase still bound, per cent of control (PDPK1 (human)): 99%
kinase still bound, per cent of control (PIM1 (human)): 94%
kinase still bound, per cent of control (PKN1 (human)): 100%
kinase still bound, per cent of control [3]: 100%
kinase still bound, per cent of control (RIOK2 (human)): 22%
kinase still bound, per cent of control (RPS6KA4 KD1 (human)): 64%
kinase still bound, per cent of control (RPS6KA4 KD2 (human)): 80%
kinase still bound, per cent of control (SGK110 (human)): 100%
kinase still bound, per cent of control (SIK3 (human)): 84%
kinase still bound, per cent of control (STK39 (human)): 67%
kinase still bound, per cent of control (TGFBR2 (human)): 100%
kinase still bound, per cent of control (TNIK (human)): 96%
kinase still bound, per cent of control (ZAP70 (human)): 100%

Cn1cc(C2=C(c3ccc(Cl)cc3Cl)C(=O)NC2=O)c2ccccc21
kinase still bound, per cent of control [1]: 100%
kinase still bound, per cent of control [2]: 100%
kinase still bound, per cent of control (ACVRL1 (human)): 100%
kinase still bound, per cent of control (AKT2 (human)): 100%
kinase still bound, per cent of control (ALK (human)): 100%
kinase still bound, per cent of control (ANKK1 (human)): 86%
kinase still bound, per cent of control (CAMK4 (human)): 98%
kinase still bound, per cent of control (CDC42BPG (human)): 100%
kinase still bound, per cent of control (CDK11B (human)): 100%
kinase still bound, per cent of control (CHEK1 (human)): 94%
kinase still bound, per cent of control (CLK1 (human)): 1.6%
kinase still bound, per cent of control (CLK3 (human)): 1.4%
kinase still bound, per cent of control (DAPK3 (human)): 69%
kinase still bound, per cent of control (DDR2 (human)): 84%
kinase still bound, per cent of control (EIF2AK2 (human)): 81%
kinase still bound, per cent of control (EPHA4 (human)): 100%
kinase still bound, per cent of control (ERBB4 (human)): 100%
kinase still bound, per cent of control (FGFR2 (human)): 100%
kinase still bound, per cent of control (FGFR3 (human)): 97%
kinase still bound, per cent of control (FYN (human)): 96%
kinase still bound, per cent of control (HIPK1 (human)): 5%
kinase still bound, per cent of control (MAP4K1 (human)): 62%
kinase still bound, per cent of control (MAPK11 (human)): 98%
kinase still bound, per cent of control (MAPK15 (human)): 1.7%
kinase still bound, per cent of control (MATK (human)): 75%
kinase still bound, per cent of control (MUSK (human)): 100%
kinase still bound, per cent of control (NEK2 (human)): 85%
kinase still bound, per cent of control (NEK5 (human)): 99%
kinase still bound, per cent of control (PAK6 (human)): 86%
kinase still bound, per cent of control (PDPK1 (human)): 100%
kinase still bound, per cent of control (PIM1 (human)): 22%
kinase still bound, per cent of control (PKN1 (human)): 73%
kinase still bound, per cent of control [3]: 100%
kinase still bound, per cent of control (RIOK2 (human)): 95%
kinase still bound, per cent of control (RPS6KA4 KD1 (human)): 100%
kinase still bound, per cent of control (RPS6KA4 KD2 (human)): 96%
kinase still bound, per cent of control (SGK110 (human)): 100%
kinase still bound, per cent of control (SIK3 (human)): 86%
kinase still bound, per cent of control (STK39 (human)): 100%
kinase still bound, per cent of control (TGFBR2 (human)): 100%
kinase still bound, per cent of control (TNIK (human)): 68%
kinase still bound, per cent of control (ZAP70 (human)): 100%
